# Test results taken from patent US20130109682A1, “CYCLIC ETHER COMPOUNDS USEFUL AS KINASE INHIBITORS” (NOVARTIS AG, priority 2010, published 2013).
# How the values were obtained:
# [1] = target: T1, hERG (Homo sapiens, UniProt Q12809); test: hERG binding assay ([3H] dofetilide displacement); details: dofetilide displacement; read-out: HERGdof IC50
# T1 construct: host or cells: crude membrane suspension
# Procedure, shortened: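 Displacement of 2.5 nM [3H]dofetilide from crude hERG membranes (ca. 15 μg protein) by filtration binding, 90 min at room temperature, 0.5% DMSO final. Non-specific binding defined with 25 μM terfenadine; compounds run as 9-point duplicate curves from 30 μM to 3 nM.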
# [2] = target: cABLT315 kinase (Homo sapiens, UniProt P00519); test: cABLT315 kinase Caliper assay; format: biochemical
# Experimental: PKCα and cABLT315 Kinase Caliper Assays
# Assays were performed in 384 well microtiter plates. Each assay plate contained 8-point serial dilutions for test compounds, as well as two 16-point serial dilutions of staurosporine as reference compound, plus 16 high- and 16 low controls. Liquid handling and incubation steps were done on a Thermo CatX workstation equipped with a Innovadyne Nanodrop Express. Between pipetting steps, tips were cleaned in wash cycles using wash buffer. Plates with terminated kinase reactions were transferred to the Caliper LC3000 workstations for reading. Phosphorylated and unphosphorylated peptides were separated using the Caliper microfluidic mobilitishift technology and Kinase activities were calculated from the amounts of formed phospho-peptide.
# Kinase reactions were prepared in 384 low volume plates by the following sequence:
# 1. 0.05 μA Compound (start with 1.8 mM in 90% DMSO/10% H2O)
# 2. +4.5 μl 2× peptide/ATP solution
# 3. +4.5 μl 2× enzyme solution
# 4. Incubate for 60 min at 30° C.
# 4. +16 μl stop/run buffer
# Independent of the kinase, all reactions were done performed in 50 mM HEPES, pH 7.5, 1 mM DTT, 0.02% Tween20, 0.02% BSA, and 0.6% DMSO. For cABLT315 assay specific details were as follows: [cABLT315 kinase]=2.4 nM, [ATP]=10 uM, [peptide]=2 uM, [Mg]=10 mM. For PKCα, assay specific details were as follows: [kinase]=0.012 nM, [ATP]=17 uM, [peptide]=1 uM, [Mg]=7 mM, [Ca]=0.2 mM.
# [3] = target: KDR kinase (Homo sapiens, UniProt P35968); test: KDR kinase inhibition assay (LanthaScreen TR-FRET); format: biochemical
# KDR kinase, sequence (P35968 20-1356): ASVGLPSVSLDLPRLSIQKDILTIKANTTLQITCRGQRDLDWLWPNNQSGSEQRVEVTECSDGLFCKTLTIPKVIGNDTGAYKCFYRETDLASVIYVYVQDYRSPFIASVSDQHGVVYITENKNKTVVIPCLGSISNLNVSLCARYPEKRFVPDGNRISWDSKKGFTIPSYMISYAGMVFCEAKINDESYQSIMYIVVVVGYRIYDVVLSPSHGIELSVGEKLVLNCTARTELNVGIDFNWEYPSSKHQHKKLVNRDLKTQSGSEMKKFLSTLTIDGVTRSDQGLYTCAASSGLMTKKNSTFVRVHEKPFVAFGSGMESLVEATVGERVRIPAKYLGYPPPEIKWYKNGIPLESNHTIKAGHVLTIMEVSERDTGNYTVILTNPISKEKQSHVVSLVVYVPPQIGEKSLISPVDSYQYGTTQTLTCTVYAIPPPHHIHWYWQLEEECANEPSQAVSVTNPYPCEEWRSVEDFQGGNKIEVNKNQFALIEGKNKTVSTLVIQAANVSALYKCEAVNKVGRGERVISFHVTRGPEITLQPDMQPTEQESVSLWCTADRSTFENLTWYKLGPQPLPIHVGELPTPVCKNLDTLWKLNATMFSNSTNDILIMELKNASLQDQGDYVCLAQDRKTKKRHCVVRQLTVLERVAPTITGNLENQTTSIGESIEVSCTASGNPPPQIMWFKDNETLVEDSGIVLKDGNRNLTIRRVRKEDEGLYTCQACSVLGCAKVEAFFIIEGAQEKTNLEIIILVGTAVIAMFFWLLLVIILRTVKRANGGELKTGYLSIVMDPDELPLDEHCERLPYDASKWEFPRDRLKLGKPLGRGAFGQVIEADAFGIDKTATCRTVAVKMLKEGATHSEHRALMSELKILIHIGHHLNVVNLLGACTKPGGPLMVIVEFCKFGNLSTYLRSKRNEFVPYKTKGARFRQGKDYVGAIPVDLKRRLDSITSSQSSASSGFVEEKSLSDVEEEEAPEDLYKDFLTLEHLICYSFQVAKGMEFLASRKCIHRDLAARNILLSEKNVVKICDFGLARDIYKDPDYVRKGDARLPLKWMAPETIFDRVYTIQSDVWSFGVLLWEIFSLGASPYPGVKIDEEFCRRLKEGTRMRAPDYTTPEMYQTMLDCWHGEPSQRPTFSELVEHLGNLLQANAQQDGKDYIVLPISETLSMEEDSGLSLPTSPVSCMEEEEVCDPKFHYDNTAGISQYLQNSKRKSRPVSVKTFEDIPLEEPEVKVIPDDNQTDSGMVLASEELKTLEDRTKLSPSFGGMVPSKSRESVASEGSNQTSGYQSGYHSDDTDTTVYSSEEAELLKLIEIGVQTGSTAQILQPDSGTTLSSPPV
# Experimental: KDR Kinase Inhibition Assay
# LanthaScreen™ is the detection of Time-Resolved Fluorescence Resonance Energy Transfer (TR-FRET) using lanthanide chelates to measure interactions between various binding partners. The application of TR-FRET to assay kinase activity was first described by Mathis (1995). A TR-FRET assay was used to measure KDR kinase inhibitory activity. The assay panel was run on a Biomek FX liquid handling workstations. To the assay plates containing 50 nL compound or control solutions, 4.5 μL of buffer A (50 mM TRIS-HCl pH 7.4, 2 mM DTT, 0.02% Tween 20, 0.02 mM Na3VO4, H2O nanpure) including a generic concentration of ATP (2 μM f.c.) was added per well, followed by 4.5 μL of buffer B (4 uM ATP in Buffer A) including a generic concentration of polyEAY (50 nM f.c.), KDR kinase, and divalent cations. Final concentration of kinase and cations were: [KDR kinase]=0.38 nM, [Mg]=10 mM, [Ca]=1 mM. After 1 hour of incubation the kinase reactions were stopped by the addition of 4.5 μL of stop solution D (50 mM EDTA, 20 mM TRIS-HCl pH 7.4, 0.04% NP-40) immediately followed by 4.5 μL of buffer A (50 mM TRIS-HCl pH 7.4, 2 mM DTT, 0.02% Tween 20, 0.02 mM Na3VO4, H2O nanpure) including the Tb-labeled P-20 antibody to give a total detection volume of 18 μL. After an incubation time of 45 min in the dark, the plates were transferred into the Pherastar fluorescence reader for counting. The effect of compound on the enzymatic activity was obtained from the linear progress curves and determined from one reading (end point measurement).
# [4] = target: PIM1 (Homo sapiens, UniProt P11309); test: KinaseGlo Pim1 ATP depletion assay; format: biochemical
# PIM1, sequence (P11309 whole entry): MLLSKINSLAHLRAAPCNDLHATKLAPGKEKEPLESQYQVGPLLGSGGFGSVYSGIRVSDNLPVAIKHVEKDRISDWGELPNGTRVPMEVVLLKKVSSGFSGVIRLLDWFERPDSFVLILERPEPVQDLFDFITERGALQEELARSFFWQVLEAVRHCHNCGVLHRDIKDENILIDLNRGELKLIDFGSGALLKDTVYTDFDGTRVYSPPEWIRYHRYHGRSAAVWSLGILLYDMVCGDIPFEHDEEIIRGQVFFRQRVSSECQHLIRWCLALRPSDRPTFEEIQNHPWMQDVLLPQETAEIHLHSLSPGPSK
# Procedure, shortened: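 2.5 nM PIM1 preincubated 15 min with compound and 40 μM BAD peptide in 50 mM HEPES pH 7.5, 5 mM MgCl2, 1 mM DTT, 0.05% BSA, 2.5% DMSO. The reaction was started with 20 μM ATP (final) and run to about 50% ATP depletion. Remaining ATP read by KinaseGlo Plus luminescence to give IC50.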
# T1 sequence (Q12809 whole entry): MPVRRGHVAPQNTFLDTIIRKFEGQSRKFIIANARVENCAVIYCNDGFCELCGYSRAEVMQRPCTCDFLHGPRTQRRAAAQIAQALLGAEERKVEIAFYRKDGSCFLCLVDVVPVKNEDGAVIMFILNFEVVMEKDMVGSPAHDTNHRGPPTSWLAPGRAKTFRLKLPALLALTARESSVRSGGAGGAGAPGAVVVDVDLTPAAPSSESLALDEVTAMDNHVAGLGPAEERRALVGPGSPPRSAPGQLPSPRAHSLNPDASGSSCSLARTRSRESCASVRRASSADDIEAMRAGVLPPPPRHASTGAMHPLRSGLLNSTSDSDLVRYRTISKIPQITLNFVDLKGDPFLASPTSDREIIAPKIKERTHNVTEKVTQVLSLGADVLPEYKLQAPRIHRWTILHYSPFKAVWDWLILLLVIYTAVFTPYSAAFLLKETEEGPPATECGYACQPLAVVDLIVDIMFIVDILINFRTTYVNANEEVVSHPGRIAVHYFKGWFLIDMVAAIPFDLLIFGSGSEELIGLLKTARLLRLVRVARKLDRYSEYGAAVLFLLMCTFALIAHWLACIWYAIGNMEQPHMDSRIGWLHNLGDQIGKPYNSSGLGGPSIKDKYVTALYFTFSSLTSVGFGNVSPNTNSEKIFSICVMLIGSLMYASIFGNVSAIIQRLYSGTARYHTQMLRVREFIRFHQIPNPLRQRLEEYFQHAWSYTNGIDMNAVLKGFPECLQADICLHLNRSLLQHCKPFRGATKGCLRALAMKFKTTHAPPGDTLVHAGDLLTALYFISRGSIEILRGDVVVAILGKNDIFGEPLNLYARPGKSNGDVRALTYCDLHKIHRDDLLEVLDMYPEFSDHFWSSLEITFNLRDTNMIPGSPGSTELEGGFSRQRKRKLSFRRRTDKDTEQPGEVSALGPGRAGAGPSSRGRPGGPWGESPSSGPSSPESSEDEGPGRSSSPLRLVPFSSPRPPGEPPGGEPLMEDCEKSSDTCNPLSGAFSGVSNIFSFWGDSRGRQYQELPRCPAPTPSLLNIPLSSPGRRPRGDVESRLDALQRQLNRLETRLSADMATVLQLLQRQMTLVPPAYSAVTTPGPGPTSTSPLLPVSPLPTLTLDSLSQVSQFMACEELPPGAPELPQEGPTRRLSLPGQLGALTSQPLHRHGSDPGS
SMILES,IC50 [2],IC50 [3],IC50 [4],IC50 [1]
"C[C@H]1O[C@@H](c2ccncc2NC(=O)c2nc(-c3ccccc3)ncc2N)C[C@@H](O)[C@]1(C)O [Example 32, 5-amino-N-(4-((2R,4R,5S,6R)-4,5-dihydroxy-5,6-dimethyltetrahydro-2H-pyran-2-yl)pyridin-3-yl)-2-phenylpyrimidine-4-carboxamide]",9000 nM,> 10000 nM,5 nM,> 30 µM
"CC[C@H]1O[C@@H](c2ccncc2NC(=O)c2nc(-c3ccccc3)ncc2N)C[C@@H](O)[C@@H]1O [Example 39, 5-amino-N-(4-((2R,4R,5S,6R)-6-ethyl-4,5-dihydroxytetrahydro-2H-pyran-2-yl)pyridin-3-yl)-2-phenylpyrimidine-4-carboxamide]",8000 nM,> 10000 nM,4 nM,> 30 µM
"C[C@H]1O[C@@H](c2ccncc2NC(=O)c2nc(-c3ccccc3)cnc2N)[C@H](F)[C@@H](O)[C@]1(C)O [Example 58, 3-amino-N-(4-((2S,3R,4S,5S,6R)-3-fluoro-4,5-dihydroxy-5,6-dimethyltetrahydro-2H-pyran-2-yl)pyridin-3-yl)-6-phenylpyrazine-2-carboxamide]",660 nM,280 nM,9 nM,> 30 µM
"C[C@@H]1O[C@H](c2ccncc2NC(=O)c2nc(-c3ccccc3)cnc2N)[C@@H](F)[C@H](O)[C@@]1(C)O [Example 63, 3-amino-N-(4-((2R,3S,4R,5R,6S)-3-fluoro-4,5-dihydroxy-5,6-dimethyltetrahydro-2H-pyran-2-yl)pyridin-3-yl)-6-phenylpyrazine-2-carboxamide]",650 nM,220 nM,6 nM,> 30 µM
"C[C@@H]1O[C@H](c2ccncc2NC(=O)c2nc(-c3ccccc3)cnc2N)C[C@H](O)[C@@]1(C)O [Example 86, 3-amino-N-(4-((2S,4S,5R,6S)-4,5-dihydroxy-5,6-dimethyltetrahydro-2H-pyran-2-yl)pyridin-3-yl)-6-phenylpyrazine-2-carboxamide]",700 nM,300 nM,5 nM,25 µM
"Nc1ncc(-c2ccccc2)nc1C(=O)Nc1cnccc1[C@@H]1C[C@H](O)[C@]2(O)CCC[C@@H]2O1 [Example 186, 3-amino-N-(4-((2S,4S,4aR,7aS)-4,4a-dihydroxyoctahydrocyclopenta[b]pyran-2-yl)pyridin-3-yl)-6-phenylpyrazine-2-carboxamide]",9900 nM,,159 nM,> 30 µM
"O=C1CC[C@H]2O[C@@H](c3ccncc3NC(=O)c3ccc(F)c(-c4c(F)cccc4F)n3)C[C@@H](O)[C@@H]2N1 [Example 196, 6-(2,6-difluorophenyl)-5-fluoro-N-(4-((2R,4R,4aS,8aR)-4-hydroxy-6-oxooctahydro-2H-pyrano[3,2-b]pyridin-2-yl)pyridin-3-yl)picolinamide]",> 10000 nM,,3.4 nM,> 30 µM
"N[C@@H]1C[C@H](c2ccncc2NC(=O)c2ccc(F)c(-c3c(F)cccc3F)n2)O[C@@H]2CCC[C@]12O [Example 210, N-(4-((2R,4R,4aS,7aR)-4-amino-4a-hydroxyoctahydrocyclopenta[b]pyran-2-yl)pyridin-3-yl)-6-(2,6-difluorophenyl)-5-fluoropicolinamide]",> 10000 nM,,0.5 nM,10 µM
"Nc1cnc(-c2c(F)cccc2F)nc1C(=O)Nc1cnccc1[C@H]1C[C@@H](N)[C@@]2(O)CCC[C@H]2O1 [Example 213, 5-amino-N-(4-((2R,4R,4aS,7aR)-4-amino-4a-hydroxyoctahydrocyclopenta[b]pyran-2-yl)pyridin-3-yl)-2-(2,6-difluorophenyl)pyrimidine-4-carboxamide]",> 10000 nM,,3.9 nM,> 30 µM

# Now those with a lower IC50 [2], led by results:
IC50 [2],IC50 [3],IC50 [4],SMILES,IC50 [1]
70 nM,10 nM,25.9 nM,"C=C1[C@@H](O)C[C@@H](c2ccncc2NC(=O)c2nc(-c3ccccc3)cnc2N)OC12CC2 [Example 5, 3-amino-N-(4-((5S,7S)-7-hydroxy-8-methylene-4-oxaspiro[2.5]octan-5-yl)pyridin-3-yl)-6-phenylpyrazine-2-carboxamide]",> 30 µM
30 nM,1 nM,1 nM,"Nc1ncc(-c2ccccc2)nc1C(=O)Nc1cnccc1[C@H]1C[C@@H](O)[C@H](O)[C@@H](CCl)O1 [Example 36, 3-amino-N-(4-((2R,4R,5S,6S)-6-(chloromethyl)-4,5-dihydroxytetrahydro-2H-pyran-2-yl)pyridin-3-yl)-6-phenylpyrazine-2-carboxamide]",> 30 µM
86 nM,16 nM,1 nM,"C[C@H]1O[C@@H](c2ccncc2NC(=O)c2nc(-c3ccccc3)cnc2N)C[C@@H](O)[C@]1(C)O [Example 84, 3-amino-N-(4-((2R,4R,5S,6R)-4,5-dihydroxy-5,6-dimethyltetrahydro-2H-pyran-2-yl)pyridin-3-yl)-6-phenylpyrazine-2-carboxamide]",> 30 µM
90 nM,,2.2 nM,"Nc1ncc(-c2ccccc2)nc1C(=O)Nc1cnccc1[C@H]1C[C@@H](O)[C@@]2(O)CCC[C@H]2O1 [Example 195, 3-amino-N-(4-((2R,4R,4aS,7aR)-4,4a-dihydroxyoctahydrocyclopenta[b]pyran-2-yl)pyridin-3-yl)-6-phenylpyrazine-2-carboxamide]",> 30 µM
